Key:
[1] = system: polyglutamine luciferase reporter; experiment: Screening: polyglutamine luciferase reporter assay in NUGC3 cells (luminescence % of DMSO); format: cell-based, human; conditions: NUGC3 cells, luminescence relative to DMSO, concentration not given
YAP/TAZ = experiment: Screening: YAP/TAZ activity reporter (8xGTIIC plasmid) assay in NUGC3 cells (luminescence % of DMSO); format: cell-based, human; conditions: NUGC3 cells, luminescence relative to DMSO, concentration not given
[2] = system: triple-negative breast cancer cell line MDA-MB-231; experiment: Anti-tumor effect evaluation test in MDA-MB-231 tumor model mice; format: in vivo, immunodeficient mice (BALB/c-nu/nu); conditions: 100 mg/kg intraperitoneally every other day in corn oil; FIG. 1 and 2
Procedure: A cell suspension (1×10^6 cells/100 μL), in which triple-negative breast cancer cell line MDA-MB-231 was suspended in phosphate buffer (PBS, produced by FUJIFILM Wako Pure Chemical Corporation), was inoculated subcutaneously in the dorsal lumbar region of immunodeficient mice (BALB/c-nu/nu, female, 6 weeks old, purchased from Shimizu Laboratory Supplies Co., Ltd.) using a syringe with a 23 G injection needle (Terumo Corporation). After confirming that the cancer cells engrafted under the skin of the mice to form tumor tissues, and that the tumor volume reached 100 mm^3, the obtained tumor model mice were used for the following evaluation test. First, each compound for evaluation was dissolved in corn oil (produced by Sigma-Aldrich Co., LLC) and administered intraperitoneally. PVZF0024 was administered at 100 mg/kg and PVZF2001 was administered at 20 mg/kg to the tumor model mice every other day. At each administration, the tumor diameter was measured with a caliper. The tumor volume was calculated according to the following formula: V=(3.14×D×d^2)/6 (wherein V is the tumor volume, D is the tumor major axis, and d is the tumor minor axis) (Wu. et al., Clin. Cancer Res., 2013 Oct. 15; 19(20): 5699-5710).

[3] = polyglutamine luciferase reporter
[4] = YAP/TAZ activity reporter (8×GTIIC)

Row | Structure (SMILES) | Polyglutamine [1] [%] | 8×GTIIC (YAP/TAZ) [%] | antitumor effect (tumor growth, tumor volume) [2] | Polyglutamine [1, 3] [%] | 8×GTIIC (YAP/TAZ; [4]) [%]
1 | Oc1ccccc1C1CC(c2ccc3c(c2)OCCO3)=NN1 (stereo not drawn) [PVZF0024] | 15.8 | 23.4 | significantly inhibit tumor growth |  | 
2 | Cc1ccc(S(=O)(=O)CC2CCC(S(C)(=O)=O)CC2)cc1 (stereo not drawn) [SA060] |  |  |  | 92.41 | 90.52
3 | CS(=O)(=O)C1CCC(CS(=O)(=O)c2ccc3c(c2)CCCCC3)CC1 (stereo not drawn) [SA061] |  |  |  | 66.4 | 96.27
4 | Cc1ccc(S(=O)(=O)CC2CCC(S(C)(=O)=O)CC2)cc1 (stereo not drawn) [SA062] |  |  |  | 93.21 | 100.9
5 | CCc1ccc(S(=O)(=O)CC2CCC(S(C)(=O)=O)CC2)cc1CC (stereo not drawn) [SA063] |  |  |  | 78.75 | 93.35
6 | Cc1ccc(C)c(S(=O)(=O)CC2CCC(S(C)(=O)=O)CC2)c1 (stereo not drawn) [SA064] |  |  |  | 54.39 | 64.48
7 | CS(=O)(=O)C1CCC(CS(=O)(=O)c2ccc3c(c2)CCCC3)CC1 (stereo not drawn) [SA065] |  |  |  | 47.58 | 39.43
8 | CC(C)(C)c1cc(C(C)(C)C)cc(S(=O)(=O)CC2CCC(C3CC3)CC2)c1 (stereo not drawn) [SA066] |  |  |  | 66.16 | 64.4
9 | Cc1ccc(S(=O)(=O)CC2CCC(C3CC3)CC2)cc1 (stereo not drawn) [SA067] |  |  |  | 75.3 | 75.49
10 | CCC1CCC(C(C)S(=O)(=O)c2c(C)cc(C(C)(C)C)cc2C)CC1 (stereo not drawn) [SA068] |  |  |  | 81.58 | 110.2
11 | C=C(CCC)C1CCC(CS(=O)(=O)c2ccc(C)cc2C(C)(C)C)CC1 (stereo not drawn) [SA069] |  |  |  | 76.83 | 67.61
12 | CC(C)(C)c1cc(C(C)(C)C)cc(S(=O)(=O)CC2CCC(S(C)(=O)=O)CC2)c1 (stereo not drawn) [SA070] |  |  |  | 59.04 | 109.7
13 | O=S(=O)(CC1CCC(S(=O)(=O)C2CCCCC2)CC1)c1ccccc1 (stereo not drawn) [SA071] |  |  |  | 61.72 | 138.5
14 | CC1CCC(S(=O)(=O)C2CCC(CS(=O)(=O)c3ccccc3)CC2)CC1 (stereo not drawn) [SA072] |  |  |  | 73.98 | 68.16
15 | CC(=O)c1ccccc1S(=O)(=O)CC1CCC(S(C)(=O)=O)CC1 (stereo not drawn) [SA074] |  |  |  | 92.5 | 88.44
16 | CCS(=O)(=O)C1CCC(CS(=O)(=O)c2ccc(C)cc2C)CC1 (stereo not drawn) [SA075] |  |  |  | 110.7 | 95.02
17 | Cc1ccc(S(=O)(=O)CC2CCC(S(C)(=O)=O)CC2)c(C)c1 (stereo not drawn) [SA076] |  |  |  | 98.03 | 64.29
18 | CCS(=O)(=O)C1CCC(CS(=O)(=O)c2cc(C(C)C)cc(C)c2C)CC1 (stereo not drawn) [SA077] |  |  |  | 65.09 | 66.59
19 | Cc1cc(C(C)C)cc(S(=O)(=O)CC2CCC(S(C)(=O)=O)CC2)c1C (stereo not drawn) [SA078] |  |  |  | 87.12 | 95.87
20 | Cc1c(C)c(C)c(S(=O)(=O)CC2CCC(S(C)(=O)=O)CC2)c(C)c1C (stereo not drawn) [SA080] |  |  |  | 55.01 | 62.45
21 | Cc1ccc(S(=O)(=O)CC2CCC(S(C)(=O)=O)CC2)c(C(C)(C)C)c1 (stereo not drawn) [SA085] |  |  |  | 86 | 83.09
22 | Cc1cc(C)c(C)c(S(=O)(=O)CC2CCC(S(C)(=O)=O)CC2)c1C (stereo not drawn) [SA086] |  |  |  | 33.07 | 40.75
23 | CC(C)(C)c1ccccc1S(=O)(=O)CC1CCC(C2CC2)CC1 (stereo not drawn) [SA087] |  |  |  | 78.43 | 59.57
24 | CC(C)(C)Cc1ccccc1S(=O)(=O)CC1CCC(C2CC2)CC1 (stereo not drawn) [SA089] |  |  |  | 56.61 | 50.1
25 | CC1CC(C)CC(S(=O)(=O)C2CCC(CS(=O)(=O)c3ccccc3)CC2)C1 (stereo not drawn) [SA090] |  |  |  | 84.73 | 64.02
26 | O=S(=O)(CC1CCC(C2CC2)CC1)c1ccc2c(c1)CCC2 (stereo not drawn) [SA091] |  |  |  | 88.36 | 101.3
27 | Cc1cc(C)c(C)c(S(=O)(=O)CC2CCC(S(C)(=O)=O)CC2)c1C (stereo not drawn) [SA093] |  |  |  | 38.43 | 39.06
28 | CCc1ccc(CC)c(S(=O)(=O)CC2CCC(S(C)(=O)=O)CC2)c1 (stereo not drawn) [SA095] |  |  |  | 44.97 | 67.3

Source: patent US20230210834A1, “RNA METHYLTRANSFERASE INHIBITOR, SCREENING METHOD THEREFOR, ANTI-CANCER AGENT EFFICACY ASSESSMENT MARKER, AND KIT FOR EFFECTIVELY PREDICTING FTSJ1 INHIBITOR” (National University Corporation Okayama University, priority 2019, published 2023)
